How the values were obtained:
[1] = Metabolic stability in Wistar rat blood assessed as compound remaining at 30 MBq, iv after 10 mins by radio-HPLC analysis; format: ADME, organism-based; details: read-out: Stability
[2] = system: Spleen; assay: Biodistribution in Wistar rat spleen at 1.7 MBq, iv administered as single dose measured after 5 mins post-injection by gamma counting; format: ADME, organism-based; details: in vivo
[3] = system: Lung; assay: Biodistribution in Wistar rat lung at 1.7 MBq, iv administered as single dose measured after 10 mins post-injection by gamma counting; format: ADME, organism-based; details: in vivo
[4] = system: Thymus; assay: Biodistribution in Wistar rat thymus assessed as standard uptake value at 1.7 MBq, iv administered as single dose measured after 60 mins post-injection by gamma counting; format: ADME, organism-based; details: in vivo, 1 h
[5] = system: Femur; assay: Biodistribution in Wistar rat femur at 1.7 MBq, iv administered as single dose measured after 30 mins post-injection by gamma counting; format: ADME, organism-based; details: in vivo, 0.5 h
[6] = system: Muscle tissue; assay: Biodistribution in Wistar rat muscle assessed as standard uptake value at 1.7 MBq, iv administered as single dose measured after 30 mins post-injection by gamma counting; format: ADME, organism-based; details: in vivo, 0.5 h
[7] = system: Liver; assay: Biodistribution in Wistar rat liver assessed as standard uptake value at 1.7 MBq, iv administered as single dose measured after 5 mins post-injection by gamma counting; format: ADME, organism-based; details: in vivo
[8] = Biodistribution in Wistar rat hair/skin assessed as standard uptake value at 1.7 MBq, iv administered as single dose measured after 1 min post-injection by gamma counting; format: ADME, organism-based; details: in vivo
[9] = Biodistribution in Wistar rat brown adipose tissue assessed as standard uptake value at 1.7 MBq, iv administered as single dose measured after 1 min post-injection by gamma counting; format: ADME, organism-based; details: in vivo
[10] = system: Lung; assay: Biodistribution in Wistar rat lung assessed as standard uptake value at 1.7 MBq, iv administered as single dose measured after 30 mins post-injection by gamma counting; format: ADME, organism-based; details: in vivo, 0.5 h
[11] = Ratio of drug level in lung to blood in Wistar rat at 1.7 MBq, iv administered as single dose measured after 60 mins post-injection; format: ADME, organism-based
[12] = system: Intestine; assay: Biodistribution in Wistar rat intestine at 1.7 MBq, iv administered as single dose measured after 60 mins post-injection by gamma counting; format: ADME, organism-based; details: in vivo, 1 h
[13] = system: Thymus; assay: Biodistribution in Wistar rat thymus at 1.7 MBq, iv administered as single dose measured after 30 mins post-injection by gamma counting; format: ADME, organism-based; details: in vivo, 0.5 h
[14] = system: Adrenal gland; assay: Biodistribution in Wistar rat adrenal gland assessed as standard uptake value at 1.7 MBq, iv administered as single dose measured after 60 mins post-injection by gamma counting; format: ADME, organism-based; details: in vivo, 1 h
[15] = system: Spleen; assay: Biodistribution in Wistar rat spleen at 1.7 MBq, iv administered as single dose measured after 30 mins post-injection by gamma counting; format: ADME, organism-based; details: in vivo, 0.5 h
[16] = system: Harderian gland; assay: Biodistribution in Wistar rat harderian gland assessed as standard uptake value at 1.7 MBq, iv administered as single dose measured after 60 mins post-injection by gamma counting; format: ADME, organism-based; details: in vivo, 1 h
[17] = system: Liver; assay: Biodistribution in Wistar rat liver assessed as standard uptake value at 1.7 MBq, iv administered as single dose measured after 10 mins post-injection by gamma counting; format: ADME, organism-based; details: in vivo
[18] = system: Brain; assay: Biodistribution in Wistar rat brain assessed as standard uptake value at 1.7 MBq, iv administered as single dose measured after 10 mins post-injection by gamma counting; format: ADME, organism-based; details: in vivo
[19] = system: Brain; assay: Biodistribution in Wistar rat brain at 1.7 MBq, iv administered as single dose measured after 5 mins post-injection by gamma counting; format: ADME, organism-based; details: in vivo
[20] = system: Testes; assay: Biodistribution in Wistar rat testes assessed as standard uptake value at 1.7 MBq, iv administered as single dose measured after 5 mins post-injection by gamma counting; format: ADME, organism-based, Testis; details: in vivo
[21] = Ratio of drug level in kidney to blood in Wistar rat at 1.7 MBq, iv administered as single dose measured after 5 mins post-injection; format: ADME, organism-based
[22] = Biodistribution in Wistar rat hair/skin assessed as standard uptake value at 1.7 MBq, iv administered as single dose measured after 5 mins post-injection by gamma counting; format: ADME, organism-based; details: in vivo
[23] = system: Mus musculus; assay: Metabolic stability in mouse at 11 MBq, iv after 45 mins by radio-HPLC analysis; format: ADME, organism-based; details: in vivo, 0.75 h
[24] = Ratio of drug level in brain to blood in Wistar rat at 1.7 MBq, iv administered as single dose measured after 60 mins post-injection; format: ADME, organism-based
[25] = Biodistribution in Wistar rat thyroid gland at 1.7 MBq, iv administered as single dose measured after 10 mins post-injection by gamma counting; format: ADME, organism-based; details: in vivo
[26] = system: Blood; assay: Metabolic stability in Wistar rat blood at 30 MBq, iv after 60 mins by radio-HPLC analysis; format: ADME, organism-based; details: in vivo, 1 h
[27] = system: Brain; assay: Biodistribution in Wistar rat brain assessed as standard uptake value at 1.7 MBq, iv administered as single dose measured after 5 mins post-injection by gamma counting; format: ADME, organism-based; details: in vivo
[28] = system: Thymus; assay: Biodistribution in Wistar rat thymus at 1.7 MBq, iv administered as single dose measured after 1 min post-injection by gamma counting; format: ADME, organism-based; details: in vivo
[29] = Metabolic stability in Wistar rat blood assessed as compound remaining at 30 MBq, iv after 20 mins by radio-HPLC analysis; format: ADME, organism-based; details: read-out: Stability
[30] = system: Kidney; assay: Biodistribution in Wistar rat kidney assessed as standard uptake value at 1.7 MBq, iv administered as single dose measured after 10 mins post-injection by gamma counting; format: ADME, organism-based; details: in vivo
[31] = system: Adrenal gland; assay: Biodistribution in Wistar rat adrenal gland assessed as standard uptake value at 1.7 MBq, iv administered as single dose measured after 10 mins post-injection by gamma counting; format: ADME, organism-based; details: in vivo
[32] = system: Thymus; assay: Biodistribution in Wistar rat thymus assessed as standard uptake value at 1.7 MBq, iv administered as single dose measured after 30 mins post-injection by gamma counting; format: ADME, organism-based; details: in vivo, 0.5 h
[33] = Biodistribution in Wistar rat thyroid gland assessed as standard uptake value at 1.7 MBq, iv administered as single dose measured after 5 mins post-injection by gamma counting; format: ADME, organism-based; details: in vivo
[34] = system: Pancreas; assay: Biodistribution in Wistar rat pancreas at 1.7 MBq, iv administered as single dose measured after 10 mins post-injection by gamma counting; format: ADME, organism-based; details: in vivo
[35] = Ratio of drug level in kidney to blood in Wistar rat at 1.7 MBq, iv administered as single dose measured after 60 mins post-injection; format: ADME, organism-based
[36] = Metabolic stability in Wistar rat blood assessed as compound remaining at 0.5 MBq after 60 mins by radio-HPLC analysis; format: ADME, tissue-based; details: read-out: Stability
[37] = Ratio of drug level in adrenal gland to blood in Wistar rat at 1.7 MBq, iv administered as single dose measured after 5 mins post-injection; format: ADME, organism-based
[38] = system: Pancreas; assay: Biodistribution in Wistar rat pancreas assessed as standard uptake value at 1.7 MBq, iv administered as single dose measured after 10 mins post-injection by gamma counting; format: ADME, organism-based; details: in vivo
[39] = system: Blood; assay: Biodistribution in Wistar rat blood assessed as standard uptake value at 1.7 MBq, iv administered as single dose measured after 10 mins post-injection by gamma counting; format: ADME, organism-based; details: in vivo
[40] = system: Heart; assay: Biodistribution in Wistar rat heart assessed as standard uptake value at 1.7 MBq, iv administered as single dose measured after 5 mins post-injection by gamma counting; format: ADME, organism-based; details: in vivo
[41] = system: Kidney; assay: Biodistribution in Wistar rat kidney assessed as standard uptake value at 1.7 MBq, iv administered as single dose measured after 60 mins post-injection by gamma counting; format: ADME, organism-based; details: in vivo, 1 h
[42] = system: Brain; assay: Biodistribution in Wistar rat brain at 1.7 MBq, iv administered as single dose measured after 10 mins post-injection by gamma counting; format: ADME, organism-based; details: in vivo

- remaining at 10 min [1]: 18%
- Drug uptake [2]: 0.23 %ID
- Drug uptake [3]: 0.66 %ID
- SUV [4]: 0.13%
- Drug uptake [5]: 0.13 %ID
- SUV [6]: 0.45%
- SUV [7]: 3.74%
- SUV [8]: 0.67%
- SUV [9]: 1.42%
- SUV [10]: 0.47%
- Kp at 1 h [11]: 1.4
- Drug uptake [12]: 30.16 %ID
- Drug uptake [13]: 0.08 %ID
- SUV [14]: 1.11%
- Drug uptake [15]: 0.08 %ID
- SUV [16]: 0.46%
- SUV [17]: 3.03%
- SUV [18]: 0.97%
- Drug uptake [19]: 1.87 %ID
- SUV [20]: 0.41%
- Kp at 5 min [21]: 4.7
- SUV [22]: 0.92%
- Stability [23]: Unstable
- Kp at 1 h [24]: 3.2
- Drug uptake [25]: 0.05 %ID
- Stability [26]: Unstable
- SUV [27]: 1.67%
- Drug uptake [28]: 0.5 %ID
- remaining at 20 min [29]: 12%
- SUV [30]: 2.27%
- SUV [31]: 3.2%
- SUV [32]: 0.26%
- SUV [33]: 0.99%
- Drug uptake [34]: 0.28 %ID
- Kp at 1 h [35]: 7.6
- remaining at 1 h, 0.5 MBq [36]: 84%
- Kp at 5 min [37]: 10.2
- SUV [38]: 1.13%
- SUV [39]: 0.47%
- SUV [40]: 1.33%
- SUV [41]: 0.99%
- Drug uptake [42]: 1.09 %ID
SMILES: O=C1Nc2ccccc2/C1=C/c1ccc([18F])cc1

— ChEMBL document CHEMBL1152667, “Synthesis and radiopharmacological investigation of 3-[4'-[(18)F]fluorobenzylidene]indolin-2-one as possible tyrosine kinase inhibitor” (Bioorg Med Chem, 2009)
